The values below are quoted from earlier work in publication PMC4860896 (Theranostics, 2016).

A value given as a limit tells only on which side of the number the result lay.

With `OCC1[C@H]2CC/C=C/CC[C@@H]12` (stereo partly drawn) [compound 4, (1R,8S,E)-bicyclo[6.1.0]non-4-en-9-ylmethanol], the “rate constant of reaction of sTCO with diphenyl-s-tetrazine derivatives” value (at 25 °C in water, prior study) is listed as “up to 2.86 x 10^5 M^-1s^-1”. Further, under “room temperature conjugations in water, listed as sTCO”, the “rate constant of tetrazine ligation, fastest measured” value was no more than 3.3e+06 M⁻¹ s⁻¹.
